Laboratory results as given in ChEMBL document CHEMBL1201862, “PubChem BioAssay data set” (2004).
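Exposure lasted 48 hours, with cells grown in 96-well plates and compounds tested at five concentrations. GI50 = concentration required for 50% inhibition of growth.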 The source made the active and inactive calls. Cut-off read from the data, not from the text of the source: active = GI50 up to about 1.1 µM and inactive = higher.

Experiments:
Assay in all cases: NCI-60 cell line screen, 48 h
[1] = tested on: NCI-H23
[2] = tested on: A549
[3] = tested on: K562
[4] = tested on: U-251
[5] = tested on: SF-295
[6] = tested on: SN12C
[7] = tested on: SK-OV-3
[8] = tested on: CAKI-1
[9] = tested on: RPMI-8226
[10] = tested on: Malme-3M
[11] = tested on: MOLT-4
[12] = tested on: KM12
[13] = tested on: UO-31
[14] = tested on: SW-620
[15] = tested on: OVCAR-5
[16] = tested on: SF-268
[17] = tested on: MDA-MB-435
[18] = tested on: SNB-19
[19] = tested on: DU-145
[20] = tested on: NCI/ADR-RES
[21] = tested on: COLO 205
[22] = tested on: HCC 2998
[23] = tested on: PC-3
[24] = tested on: 786-0
[25] = tested on: EKVX
[26] = tested on: NCI-H226
[27] = tested on: CCRF-CEM
[28] = tested on: HOP-62
[29] = tested on: UACC-62
[30] = tested on: HCT-116
[31] = tested on: OVCAR-3
[32] = tested on: MDA-N
[33] = tested on: NCI-H522
[34] = tested on: BT-549
[35] = tested on: RXF 393
[36] = tested on: SK-MEL-5
[37] = tested on: OVCAR-8
[38] = tested on: SNB-75
[39] = tested on: SK-MEL-28
[40] = tested on: ACHN
[41] = tested on: M14
[42] = tested on: MDA-MB-231
[43] = tested on: SK-MEL-2
[44] = tested on: Hs-578T
[45] = tested on: UACC-257
[46] = tested on: LOX IMVI
[47] = tested on: HL-60
[48] = tested on: OVCAR-4
[49] = tested on: HCT-15
[50] = tested on: HT-29
[51] = tested on: IGROV-1
[52] = tested on: TK-10

Question: With `CS(=O)(=O)c1nc(-c2cc3c(c(S(C)(=O)=O)n2)CCC3)cc2c1CCCCC2` as the compound, how does the GI50 [1] read?
Answer: 41.4 µM (inactive)

Question: And the GI50 [2]?
Answer: > 100 µM (inactive)

Question: And the GI50 [3]?
Answer: > 100 µM (inactive)

Question: And the GI50 [4]?
Answer: 41.9 µM (inactive)

Question: What about the GI50 [5] of the same compound?
Answer: 31.7 µM (inactive)

Question: And the GI50 [6]?
Answer: > 100 µM (inactive)

Question: What about the GI50 [7] of the same compound?
Answer: 11.9 µM (inactive)

Question: And the GI50 [8]?
Answer: 21 µM (inactive)

Question: What about the GI50 [9] of the same compound?
Answer: > 100 µM (inactive)

Question: What about the GI50 [10] of the same compound?
Answer: 34.5 µM (inactive)

Question: And the GI50 [11]?
Answer: > 100 µM (inactive)

Question: And the GI50 [12]?
Answer: > 100 µM (inactive)

Question: And the GI50 [13]?
Answer: 0.834 µM (active)

Question: And the GI50 [14]?
Answer: > 100 µM (inactive)

Question: What about the GI50 [15] of the same compound?
Answer: > 100 µM (inactive)

Question: And the GI50 [16]?
Answer: 14.8 µM (inactive)

Question: And the GI50 [17]?
Answer: > 100 µM (inactive)

Question: What about the GI50 [18] of the same compound?
Answer: 34.4 µM (inactive)

Question: What about the GI50 [19] of the same compound?
Answer: > 100 µM (inactive)

Question: And the GI50 [20]?
Answer: 49.5 µM (inactive)

Question: And the GI50 [21]?
Answer: > 100 µM (inactive)

Question: And the GI50 [22]?
Answer: > 100 µM (inactive)

Question: What about the GI50 [23] of the same compound?
Answer: > 100 µM (inactive)

Question: What about the GI50 [24] of the same compound?
Answer: 70.8 µM (inactive)

Question: And the GI50 [25]?
Answer: > 100 µM (inactive)

Question: What about the GI50 [26] of the same compound?
Answer: 56.6 µM (inactive)

Question: What about the GI50 [27] of the same compound?
Answer: > 100 µM (inactive)

Question: What about the GI50 [28] of the same compound?
Answer: 16.9 µM (inactive)

Question: What about the GI50 [29] of the same compound?
Answer: 22.9 µM (inactive)

Question: And the GI50 [30]?
Answer: > 100 µM (inactive)

Question: What about the GI50 [31] of the same compound?
Answer: > 100 µM (inactive)

Question: And the GI50 [32]?
Answer: > 100 µM (inactive)

Question: What about the GI50 [33] of the same compound?
Answer: 15.2 µM (inactive)

Question: What about the GI50 [34] of the same compound?
Answer: 20.5 µM (inactive)

Question: What about the GI50 [35] of the same compound?
Answer: 18.5 µM (inactive)

Question: What about the GI50 [36] of the same compound?
Answer: > 100 µM (inactive)

Question: What about the GI50 [37] of the same compound?
Answer: 66.5 µM (inactive)

Question: And the GI50 [38]?
Answer: 6.37 µM (inactive)

Question: What about the GI50 [39] of the same compound?
Answer: > 100 µM (inactive)

Question: And the GI50 [40]?
Answer: 45 µM (inactive)

Question: What about the GI50 [41] of the same compound?
Answer: > 100 µM (inactive)

Question: What about the GI50 [42] of the same compound?
Answer: 54.7 µM (inactive)

Question: What about the GI50 [43] of the same compound?
Answer: 24.8 µM (inactive)

Question: And the GI50 [44]?
Answer: 9.08 µM (inactive)

Question: And the GI50 [45]?
Answer: > 100 µM (inactive)

Question: What about the GI50 [46] of the same compound?
Answer: > 100 µM (inactive)

Question: And the GI50 [47]?
Answer: > 100 µM (inactive)

Question: What about the GI50 [48] of the same compound?
Answer: > 100 µM (inactive)

Question: And the GI50 [49]?
Answer: > 100 µM

Question: And the GI50 [50]?
Answer: > 100 µM (inactive)

Question: And the GI50 [51]?
Answer: 20.1 µM (inactive)

Question: And the GI50 [52]?
Answer: 42.7 µM (inactive)
